The values that follow come from ChEMBL document CHEMBL1147463, “Synthesis and anticancer activity of side chain analogs of the crambescidin alkaloids” (2004).

Type in all cases: functional
A short description of assay [1]: Human tumor selectivity was measured as zone unit differential between (H116) colon tumor and (CEM) lymphocytic leukemia in disk diffusion soft agar colony formation assay at a concentration of 19 ug/disk.
Assay [2] in a line: Murine tumor cell selectivity was measured as zone unit differential between (C38) colon adenocarcinoma and ([…]) murine cell line in disk diffusion soft agar colony formation assay at a concentration of 19 ug/disk.
A short description of assay [3]: Murine tumor cell selectivity was measured as zone unit differential between ([…]) murine cell line and (CFU) normal bone marrow in disk diffusion soft agar colony formation assay at a concentration of 19 ug/disk.
Assay [4] in a line: Murine tumor cell selectivity was measured as zone unit differential between (C38) colon adenocarcinoma and (CFU) normal bone marrow in disk diffusion soft agar colony formation assay at a concentration of 19 ug/disk.
Assay [5] is described as follows: Human tumor selectivity was measured as zone unit differential between (H125) lung small cell carcinoma and (CEM) lymphocytic leukemia in disk diffusion soft agar colony formation assay at a concentration of 19 ug/disk.
The nature of assay [6]: Murine tumor cell selectivity was measured as zone unit differential between ([…]) murine cell line and (CFU) normal bone marrow in disk diffusion soft agar colony formation assay at a concentration of 5 ug/disk.
Assay [7] is described as follows: Human tumor selectivity was measured as zone unit differential between (H116) colon tumor and (CEM) lymphocytic leukemia in disk diffusion soft agar colony formation assay at a concentration of 5 ug/disk.
Assay [8] can be described thus: Murine tumor cell selectivity was measured as zone unit differential between (C38) colon adenocarcinoma and (CFU) normal bone marrow in disk diffusion soft agar colony formation assay at a concentration of 5 ug/disk.
A short description of assay [9]: Human tumor selectivity was measured as zone unit differential between (H125) lung small cell carcinoma and (CEM) lymphocytic leukemia in disk diffusion soft agar colony formation assay at a concentration of 5 ug/disk.
The nature of assay [10]: Murine tumor cell selectivity was measured as zone unit differential between (C38) colon adenocarcinoma and ([…]) murine cell line in disk diffusion soft agar colony formation assay at a concentration of 5 ug/disk.
The nature of assay [11]: Human tumor selectivity was measured as zone unit differential between (H125) lung small cell carcinoma and (CEM) lymphocytic leukemia in disk diffusion soft agar colony formation assay at a concentration of 1 ug/disk.
Assay [12] is described as follows: Murine tumor cell selectivity was measured as zone unit differential between (C38) colon adenocarcinoma and (CFU) normal bone marrow in disk diffusion soft agar colony formation assay at a concentration of 1 ug/disk.
Assay [13] can be described thus: Murine tumor cell selectivity was measured as zone unit differential between ([…]) murine cell line and (CFU) normal bone marrow in disk diffusion soft agar colony formation assay at a concentration of 1 ug/disk.
Assay [14] in a line: Human tumor selectivity was measured as zone unit differential between (H116) colon tumor and (CEM) lymphocytic leukemia in disk diffusion soft agar colony formation assay at a concentration of 1 ug/disk.
The nature of assay [15]: Murine tumor cell selectivity was measured as zone unit differential between (C38) colon adenocarcinoma and ([…]) murine cell line in disk diffusion soft agar colony formation assay at a concentration of 1 ug/disk.

For `CC[C@H]1C=CCC[C@@]2(C[C@@H]3CC[C@@H]4C[C@]5(CCC[C@@H](C)O5)NC(=[N+]43)N2)O1.[Cl-]`, the Selectivity in [1] is 0; in assay [2], -350; in assay [3], 350; in assay [4], 0; in assay [5] it was 150.

On to `CCOC(=O)[C@H]1[C@H]2CC[C@H]3C[C@@]4(CCC=C[C@H](CC)O4)NC(=[N+]32)N[C@@]12CCC[C@@H](C)O2.[Cl-]`, for which the Selectivity was 200 in assay [6]; 0 in [7]; 150 in assay [8]; 100 in assay [9]; -50 in [10].

For the molecule `CC[C@H]1C=CCC[C@@]2(C[C@@H]3CC[C@@H]4[C@@H](C(=O)OC/C=C/c5ccccc5)[C@]5(CCC[C@@H](C)O5)NC(=[N+]34)N2)O1.[Cl-]`, the Selectivity in assay [6] was 50; in assay [7] it was 100; in [8] it was 100; in assay [9] it was 200; in assay [10] it was 50.

Consider `CC[C@H]1C=CCC[C@@]2(C[C@@H]3CC[C@@H]4[C@H](C(=O)O)[C@]5(CCC[C@@H](C)O5)NC(=[N+]34)N2)O1.[Cl-]`, for which the Selectivity in [1] was 50; in assay [2], -250; in assay [3], 200; in assay [4], -50; in assay [5] it was 100.

As for `C=CCOC(=O)[C@H]1[C@H]2CC[C@H]3C[C@@]4(CCC=C[C@H](CC)O4)NC(=[N+]32)N[C@@]12CCC[C@@H](C)O2.[Cl-]`, the Selectivity in assay [11] was determined as 0; in assay [12], 450; in assay [13], 100; in assay [14] it was 0; in assay [15], 350.

In the case of `CC[C@H]1C=CCC[C@@]2(C[C@@H]3CC[C@@H]4[C@H](C(=O)OCC5CC5)[C@]5(CCC[C@@H](C)O5)NC(=[N+]34)N2)O1.[Cl-]`, the Selectivity in assay [6] turned out to be 100; in [7] it was 100; in [8], 300; in [9], 150; in assay [10], 200.

Regarding `CC[C@H]1C=CCC[C@@]2(C[C@@H]3CC[C@@H]4[C@H](C(=O)OC/C=C/c5ccccc5)[C@]5(CCC[C@@H](C)O5)NC(=[N+]34)N2)O1.[Cl-]`, the Selectivity in assay [1] is 200; in assay [2], 150; in assay [3], -50; in assay [4], 100; in assay [5], 200.

As to `CC[C@H]1C=CCC[C@@]2(C[C@@H]3CC[C@@H]4[C@H](C(=O)OCCC(C)C)[C@]5(CCC[C@@H](C)O5)NC(=[N+]34)N2)O1.[Cl-]`, the Selectivity was -50 in assay [6]; 50 in assay [7]; 0 in assay [8]; 150 in assay [9]; 50 in [10].

For `CC[C@H]1C=CCC[C@@]2(C[C@@H]3CC[C@@H]4[C@H](C(=O)OCc5ccccc5)[C@]5(CCC[C@@H](C)O5)NC(=[N+]34)N2)O1.[Cl-]`, the Selectivity in assay [6] was 50; in [7], 50; in [8], 100; in assay [9] it was 150; in assay [10], 50.
